# Key:
# Type in all cases: in vivo
# rice (Oryza sativa) = assay: Test C flooded paddy test: rice; details: scale 0 to 100 (0 no effect, 100 complete control)
# Description: (§1) Plant species in the flooded paddy test consisted of rice (Oryza sativa), sedge, umbrella (small-flower umbrella sedge, Cyperus difformis), ducksalad (Heteranthera limosa) and barnyardgrass (Echinochloa crus-galli) grown to the 2-leaf stage for testing. At time of treatment, test pots were flooded to 3 cm above the soil surface, treated by application of test compounds directly to the paddy water, and then maintained at that water depth for the duration of the test.
# (§2) Treated plants and controls were maintained in a greenhouse for 13 to 15 days, after which time all species were compared to controls and visually evaluated. Plant response ratings, summarized in Table C, are based on a scale of 0 to 100 where 0 is no effect and 100 is complete control. A dash (-) response means no test result.
# [1] = system: pigweed (Amaranthus retroflexus); assay: Test A pre-/postemergence: pigweed; details: for Pigweed plant response rating: Postemergence; for Plant response rating, Pigweed: Preemergence
# Outline: (§3)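 Visual 0–100 injury ratings (0 no effect, 100 complete control) taken about ten days after treatment, relative to untreated controls. Preemergence treatment was a directed soil spray; postemergence plants were 2–10 cm tall at one- to two-leaf stage. Soil: loam/sand blend.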
# [2] = system: velvetleaf (Abutilon theophrasti); assay: Test A pre-/postemergence: velvetleaf; details: for Velvetleaf plant response rating: Postemergence; for Plant response rating, Velvetleaf: Preemergence
# Outline: as §3
# [3] = system: barnyardgrass (Echinochloa crus-galli); assay: Test C flooded paddy test: barnyardgrass; details: scale 0 to 100 (0 no effect, 100 complete control)
# Description: as §1, §2
# [4] = system: wheat (Triticum aestivum); assay: Test A pre-/postemergence: wheat; details: for Wheat plant response rating: Postemergence; for Plant response rating, Wheat: Preemergence
# Outline: as §3
# [5] = system: morningglory (Ipomoea spp.); assay: Test A pre-/postemergence: morningglory; details: for Morningglory plant response rating: Postemergence; for Plant response rating, Morningglory: Preemergence
# Outline: as §3
# [6] = system: ducksalad (Heteranthera limosa); assay: Test C flooded paddy test: ducksalad; details: scale 0 to 100 (0 no effect, 100 complete control)
# Description: as §1, §2
# [7] = system: sedge, umbrella (small-flower umbrella sedge, Cyperus difformis); assay: Test C flooded paddy test: sedge, umbrella; details: scale 0 to 100 (0 no effect, 100 complete control)
# Description: as §1, §2
# [8] = system: barnyardgrass (Echinochloa crus-galli); assay: Test A pre-/postemergence: barnyardgrass; details: for Barnyardgrass plant response rating: Postemergence; for Plant response rating, Barnyardgrass: Preemergence
# Outline: as §3
# [9] = system: crabgrass, large (large crabgrass, Digitaria sanguinalis); assay: Test A pre-/postemergence: crabgrass, large; details: for Crabgrass, Large plant response rating: Postemergence; for Plant response rating, Crabgrass, Large: Preemergence
# Outline: as §3
# [10] = system: foxtail, giant (giant foxtail, Setaria faberii); assay: Test A pre-/postemergence: foxtail, giant; details: for Foxtail, Giant plant response rating: Postemergence; for Plant response rating, Foxtail, Giant: Preemergence
# Outline: as §3
# corn (Zea mays) = assay: Test A pre-/postemergence: corn; details: for Corn plant response rating: Postemergence; for Plant response rating, Corn: Preemergence
# Outline: as §3
# [11] = Flood (flooded paddy test), 62 g ai/ha, visual rating after 13 to 15 days
# [12] = Flood (flooded paddy test), 125 g ai/ha, visual rating after 13 to 15 days
# [13] = Flood (flooded paddy test), 250 g ai/ha, visual rating after 13 to 15 days
# [14] = 125 g ai/ha, 0 to 100 scale, 0 is no effect, 100 is complete control
# [15] = 500 g ai/ha, visual rating on 0 to 100 scale (0 no effect, 100 complete control), approximately ten days
# [16] = 125 g ai/ha, 0 to 100 scale (0 no effect, 100 complete control)
# [17] = 500 g ai/ha, 0 to 100 scale, 0 is no effect, 100 is complete control
compound,measurement,setting,value
Cc1nn(-c2ccc([N+](=O)[O-])cc2)nc1C(=O)c1cccc(C(F)(F)F)c1 [Compound 41],"Plant response rating, Rice",rice (Oryza sativa); [11],0
same,"Plant response rating, Rice",rice (Oryza sativa); [12],0
same,"Plant response rating, Rice",rice (Oryza sativa); [13],0
same,"Plant response rating, Rice","rice (Oryza sativa); Flood, 31 g ai/ha",0
same,Pigweed plant response rating,[1]; [14],30
same,Pigweed plant response rating,[1]; [15],80
same,"Plant response rating, Pigweed",[1]; [16],20
same,"Plant response rating, Pigweed",[1]; [17],50
same,Velvetleaf plant response rating,[2]; [14],10
same,Velvetleaf plant response rating,[2]; [15],50
same,"Plant response rating, Velvetleaf",[2]; [16],10
same,"Plant response rating, Velvetleaf",[2]; [17],10
same,"Plant response rating, Barnyardgrass",[3]; [11],0
same,"Plant response rating, Barnyardgrass",[3]; [12],0
same,"Plant response rating, Barnyardgrass",[3]; [13],0
same,"Plant response rating, Barnyardgrass","[3]; Flood, 31 g ai/ha",0
same,Wheat plant response rating,[4]; [14],0
same,Wheat plant response rating,[4]; [15],10
same,"Plant response rating, Wheat",[4]; [16],0
same,"Plant response rating, Wheat",[4]; [17],0
same,Morningglory plant response rating,[5]; [14],10
same,Morningglory plant response rating,[5]; [15],10
same,"Plant response rating, Morningglory",[5]; [16],0
same,"Plant response rating, Morningglory",[5]; [17],10
same,"Plant response rating, Ducksalad",[6]; [11],0
same,"Plant response rating, Ducksalad",[6]; [12],0
same,"Plant response rating, Ducksalad",[6]; [13],0
same,"Plant response rating, Ducksalad","[6]; Flood, 31 g ai/ha",0
same,"Plant response rating, Sedge, Umbrella",[7]; [11],0
same,"Plant response rating, Sedge, Umbrella",[7]; [12],0
same,"Plant response rating, Sedge, Umbrella",[7]; [13],0
same,"Plant response rating, Sedge, Umbrella","[7]; Flood, 31 g ai/ha",0
same,Barnyardgrass plant response rating,[8]; [14],10
same,Barnyardgrass plant response rating,[8]; [15],10
same,"Plant response rating, Barnyardgrass",[8]; [16],10
same,"Plant response rating, Barnyardgrass",[8]; [17],20
same,"Crabgrass, Large plant response rating",[9]; [14],10
same,"Crabgrass, Large plant response rating",[9]; [15],30
same,"Plant response rating, Crabgrass, Large",[9]; [16],20
same,"Plant response rating, Crabgrass, Large",[9]; [17],70
same,"Foxtail, Giant plant response rating",[10]; [14],10
same,"Foxtail, Giant plant response rating",[10]; [15],20
same,"Plant response rating, Foxtail, Giant",[10]; [16],40
same,"Plant response rating, Foxtail, Giant",[10]; [17],70
same,Corn plant response rating,corn (Zea mays); [14],10
same,Corn plant response rating,corn (Zea mays); [15],20
same,"Plant response rating, Corn",corn (Zea mays); [16],0
same,"Plant response rating, Corn",corn (Zea mays); [17],0
Cc1nn(-c2cnc(Cl)cn2)nc1C(=O)c1cccc(C(F)(F)F)c1 [Compound 50],"Plant response rating, Rice",rice (Oryza sativa); [11],0
same,"Plant response rating, Rice",rice (Oryza sativa); [13],0
same,Pigweed plant response rating,[1]; [14],10
same,Pigweed plant response rating,[1]; [15],20
same,"Plant response rating, Pigweed",[1]; [16],0
same,"Plant response rating, Pigweed",[1]; [17],10
same,Velvetleaf plant response rating,[2]; [14],0
same,Velvetleaf plant response rating,[2]; [15],10
same,"Plant response rating, Velvetleaf",[2]; [16],0
same,"Plant response rating, Velvetleaf",[2]; [17],0
same,"Plant response rating, Barnyardgrass",[3]; [11],0
same,"Plant response rating, Barnyardgrass",[3]; [13],0
same,Wheat plant response rating,[4]; [14],0
same,Wheat plant response rating,[4]; [15],0
same,"Plant response rating, Wheat",[4]; [16],0
same,"Plant response rating, Wheat",[4]; [17],0
same,Morningglory plant response rating,[5]; [14],0
same,Morningglory plant response rating,[5]; [15],10
same,"Plant response rating, Morningglory",[5]; [16],0
same,"Plant response rating, Morningglory",[5]; [17],0
same,"Plant response rating, Ducksalad",[6]; [11],0
same,"Plant response rating, Ducksalad",[6]; [13],0
same,"Plant response rating, Sedge, Umbrella",[7]; [11],0
same,"Plant response rating, Sedge, Umbrella",[7]; [13],0
same,Barnyardgrass plant response rating,[8]; [14],0
same,Barnyardgrass plant response rating,[8]; [15],10
same,"Plant response rating, Barnyardgrass",[8]; [16],0
same,"Plant response rating, Barnyardgrass",[8]; [17],0
same,"Crabgrass, Large plant response rating",[9]; [14],0
same,"Crabgrass, Large plant response rating",[9]; [15],10
same,"Plant response rating, Crabgrass, Large",[9]; [16],10
same,"Plant response rating, Crabgrass, Large",[9]; [17],20
same,"Foxtail, Giant plant response rating",[10]; [14],0
same,"Foxtail, Giant plant response rating",[10]; [15],10
same,"Plant response rating, Foxtail, Giant",[10]; [16],10
same,"Plant response rating, Foxtail, Giant",[10]; [17],40
same,Corn plant response rating,corn (Zea mays); [14],0
same,Corn plant response rating,corn (Zea mays); [15],10
same,"Plant response rating, Corn",corn (Zea mays); [16],0
same,"Plant response rating, Corn",corn (Zea mays); [17],0

# Reference: patent US9302999B2, “Substituted triazoles as herbicides” (E. I. DU PONT DE NEMOURS AND COMPANY, priority 2012, dated 2016)
